# ChEMBL document CHEMBL1201862, “PubChem BioAssay data set” (2004)
#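 How tested: cells in 96-well plates exposed to compound for 48 hours at five concentrations. GI50 marks 50% less growth.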 Activity calls are given as the source filed them. Rule as the data show it: active = GI50 up to about 1.1 µM and inactive = higher.
# Columns and labels:
# Experiment in all cases: growth of human tumour cells (NCI), 48 h
# [1] = tested on: 786-0
# [2] = tested on: A498
# [3] = tested on: A549
# [4] = tested on: ACHN
# [5] = tested on: CAKI-1
# [6] = tested on: CCRF-CEM
# [7] = tested on: COLO 205
# [8] = tested on: DLD-1
# [9] = tested on: DMS-114
# [10] = tested on: DMS-273
# [11] = tested on: EKVX
# [12] = tested on: HCC 2998
# [13] = tested on: HCT-116
# [14] = tested on: HCT-15
# [15] = tested on: HL-60
# [16] = tested on: HOP-18
# [17] = tested on: HOP-62
# [18] = tested on: HT-29
# [19] = tested on: IGROV-1
# [20] = tested on: K562
# [21] = tested on: KM-20L2
# [22] = tested on: KM12
# [23] = tested on: LOX IMVI
# [24] = tested on: LXFL 529
# [25] = tested on: M14
# [26] = tested on: M19-MEL
# [27] = tested on: MOLT-4
# [28] = tested on: Malme-3M
# [29] = tested on: NCI-H226
# [30] = tested on: NCI-H23
# [31] = tested on: NCI-H460
# [32] = tested on: NCI-H522
# [33] = tested on: OVCAR-3
# [34] = tested on: OVCAR-4
# [35] = tested on: OVCAR-8
# [36] = tested on: RPMI-8226
# [37] = tested on: RXF 393
# [38] = tested on: RXF 631
# [39] = tested on: SF-268
# [40] = tested on: SF-295
# [41] = tested on: SF-539
# [42] = tested on: SK-MEL-28
# [43] = tested on: SK-MEL-2
# [44] = tested on: SK-MEL-5
# [45] = tested on: SK-OV-3
# [46] = tested on: SN12C
# [47] = tested on: SNB-19
# [48] = tested on: SNB-75
# [49] = tested on: SNB-78
# [50] = tested on: SW-620
# [51] = tested on: TK-10
# [52] = tested on: U-251
# [53] = tested on: UACC-257
# [54] = tested on: UACC-62
# [55] = tested on: UO-31
# [56] = tested on: XF498
# [57] = tested on: HOP-92
# [58] = tested on: OVCAR-5
# [59] = tested on: SR
smiles,measurement,setting,value
CCc1ccccc1NC(=O)/C(=N/O)C(C)=O,GI50,[1],> 100 µM (inactive)
same,GI50,[2],> 100 µM (inactive)
same,GI50,[3],> 100 µM (inactive)
same,GI50,[4],> 100 µM (inactive)
same,GI50,[5],> 100 µM (inactive)
same,GI50,[6],> 100 µM (inactive)
same,GI50,[7],> 100 µM (inactive)
same,GI50,[8],> 100 µM (inactive)
same,GI50,[9],> 100 µM (inactive)
same,GI50,[10],> 100 µM (inactive)
same,GI50,[11],> 100 µM (inactive)
same,GI50,[12],> 100 µM (inactive)
same,GI50,[13],> 100 µM (inactive)
same,GI50,[14],> 100 µM
same,GI50,[15],> 100 µM (inactive)
same,GI50,[16],> 100 µM (inactive)
same,GI50,[17],> 100 µM (inactive)
same,GI50,[18],> 100 µM (inactive)
same,GI50,[19],> 100 µM (inactive)
same,GI50,[20],> 100 µM (inactive)
same,GI50,[21],> 100 µM (inactive)
same,GI50,[22],> 100 µM (inactive)
same,GI50,[23],> 100 µM (inactive)
same,GI50,[24],> 100 µM (inactive)
same,GI50,[25],> 100 µM (inactive)
same,GI50,[26],> 100 µM (inactive)
same,GI50,[27],> 100 µM (inactive)
same,GI50,[28],> 100 µM (inactive)
same,GI50,[29],62.1 µM (inactive)
same,GI50,[30],> 100 µM (inactive)
same,GI50,[31],> 100 µM (inactive)
same,GI50,[32],> 100 µM (inactive)
same,GI50,[33],> 100 µM (inactive)
same,GI50,[34],> 100 µM (inactive)
same,GI50,[35],> 100 µM (inactive)
same,GI50,[36],> 100 µM (inactive)
same,GI50,[37],> 100 µM (inactive)
same,GI50,[38],> 100 µM (inactive)
same,GI50,[39],> 100 µM (inactive)
same,GI50,[40],> 100 µM (inactive)
same,GI50,[41],> 100 µM (inactive)
same,GI50,[42],> 100 µM (inactive)
same,GI50,[43],> 100 µM (inactive)
same,GI50,[44],> 100 µM (inactive)
same,GI50,[45],> 100 µM (inactive)
same,GI50,[46],96.8 µM (inactive)
same,GI50,[47],> 100 µM (inactive)
same,GI50,[48],> 100 µM (inactive)
same,GI50,[49],> 100 µM (inactive)
same,GI50,[50],> 100 µM (inactive)
same,GI50,[51],> 100 µM (inactive)
same,GI50,[52],> 100 µM (inactive)
same,GI50,[53],> 100 µM (inactive)
same,GI50,[54],> 100 µM (inactive)
same,GI50,[55],> 100 µM (inactive)
same,GI50,[56],> 100 µM (inactive)
N#CC(C(=O)/C(=N/NC(=O)c1ccccc1O)C(C#N)c1ccccc1)c1ccccc1 (stereo not given),GI50,[1],> 100 µM (inactive)
same,GI50,[2],> 100 µM (inactive)
same,GI50,[3],> 100 µM (inactive)
same,GI50,[4],> 100 µM (inactive)
same,GI50,[7],> 100 µM (inactive)
same,GI50,[8],> 100 µM (inactive)
same,GI50,[9],> 100 µM (inactive)
same,GI50,[10],> 100 µM (inactive)
same,GI50,[11],> 100 µM (inactive)
same,GI50,[12],> 100 µM (inactive)
same,GI50,[13],> 100 µM (inactive)
same,GI50,[14],> 100 µM
same,GI50,[16],> 100 µM (inactive)
same,GI50,[17],> 100 µM (inactive)
same,GI50,[57],> 100 µM (inactive)
same,GI50,[18],> 100 µM (inactive)
same,GI50,[19],> 100 µM (inactive)
same,GI50,[21],> 100 µM (inactive)
same,GI50,[22],> 100 µM (inactive)
same,GI50,[23],> 100 µM (inactive)
same,GI50,[24],> 100 µM (inactive)
same,GI50,[25],> 100 µM (inactive)
same,GI50,[26],> 100 µM (inactive)
same,GI50,[28],> 100 µM (inactive)
same,GI50,[29],> 100 µM (inactive)
same,GI50,[30],> 100 µM (inactive)
same,GI50,[31],> 100 µM (inactive)
same,GI50,[33],> 100 µM (inactive)
same,GI50,[34],> 100 µM (inactive)
same,GI50,[35],> 100 µM (inactive)
same,GI50,[36],> 100 µM (inactive)
same,GI50,[37],> 100 µM (inactive)
same,GI50,[38],> 100 µM (inactive)
same,GI50,[39],> 100 µM (inactive)
same,GI50,[40],> 100 µM (inactive)
same,GI50,[41],> 100 µM (inactive)
same,GI50,[42],> 100 µM (inactive)
same,GI50,[43],> 100 µM (inactive)
same,GI50,[45],> 100 µM (inactive)
same,GI50,[46],> 100 µM (inactive)
same,GI50,[48],> 100 µM (inactive)
same,GI50,[49],> 100 µM (inactive)
same,GI50,[51],> 100 µM (inactive)
same,GI50,[52],> 100 µM (inactive)
same,GI50,[53],> 100 µM (inactive)
same,GI50,[54],> 100 µM (inactive)
same,GI50,[55],> 100 µM (inactive)
same,GI50,[56],> 100 µM (inactive)
CCOC(=N)CC(=O)NC(C)c1ccccc1 (stereo not given),GI50,[1],> 100 µM (inactive)
same,GI50,[2],> 100 µM (inactive)
same,GI50,[3],> 100 µM (inactive)
same,GI50,[4],> 100 µM (inactive)
same,GI50,[5],> 100 µM (inactive)
same,GI50,[6],> 100 µM (inactive)
same,GI50,[7],> 100 µM (inactive)
same,GI50,[8],> 100 µM (inactive)
same,GI50,[10],> 100 µM (inactive)
same,GI50,[11],> 100 µM (inactive)
same,GI50,[12],87.7 µM (inactive)
same,GI50,[13],> 100 µM (inactive)
same,GI50,[14],> 100 µM
same,GI50,[15],> 100 µM (inactive)
same,GI50,[16],> 100 µM (inactive)
same,GI50,[17],> 100 µM (inactive)
same,GI50,[18],> 100 µM (inactive)
same,GI50,[19],> 100 µM (inactive)
same,GI50,[20],> 100 µM (inactive)
same,GI50,[21],> 100 µM (inactive)
same,GI50,[22],> 100 µM (inactive)
same,GI50,[23],> 100 µM (inactive)
same,GI50,[24],> 100 µM (inactive)
same,GI50,[25],> 100 µM (inactive)
same,GI50,[26],> 100 µM (inactive)
same,GI50,[27],> 100 µM (inactive)
same,GI50,[28],> 100 µM (inactive)
same,GI50,[29],> 100 µM (inactive)
same,GI50,[30],> 100 µM (inactive)
same,GI50,[31],> 100 µM (inactive)
same,GI50,[32],> 100 µM (inactive)
same,GI50,[33],> 100 µM (inactive)
same,GI50,[34],> 100 µM (inactive)
same,GI50,[58],> 100 µM (inactive)
same,GI50,[35],> 100 µM (inactive)
same,GI50,[37],> 100 µM (inactive)
same,GI50,[38],> 100 µM (inactive)
same,GI50,[39],> 100 µM (inactive)
same,GI50,[40],> 100 µM (inactive)
same,GI50,[41],> 100 µM (inactive)
same,GI50,[42],> 100 µM (inactive)
same,GI50,[43],> 100 µM (inactive)
same,GI50,[44],> 100 µM (inactive)
same,GI50,[45],> 100 µM (inactive)
same,GI50,[46],> 100 µM (inactive)
same,GI50,[47],> 100 µM (inactive)
same,GI50,[48],> 100 µM (inactive)
same,GI50,[49],> 100 µM (inactive)
same,GI50,[59],> 100 µM (inactive)
same,GI50,[50],> 100 µM (inactive)
same,GI50,[51],> 100 µM (inactive)
same,GI50,[52],> 100 µM (inactive)
same,GI50,[53],> 100 µM (inactive)
same,GI50,[54],> 100 µM (inactive)
same,GI50,[55],> 100 µM (inactive)
same,GI50,[56],> 100 µM (inactive)
